From article PMC10046369, “Low-Affinity/High-Selectivity Dopamine Transport Inhibition Sufficient to Rescue Cognitive Functions in the Aging Rat” (Biomolecules, 2023)

How the values were obtained:
Test in all cases: biochemical
Set-up in all cases: KINOMEscan competition binding panel, per cent of control
Details in all cases: read-out: %Ctrl @ 2800nM
[1] = target: MKNK2 (Homo sapiens, UniProt Q9HBH9)
Protocol: (§1) A panel of binding assays covering 450 human kinases and disease-relevant mutations was performed by DiscoverX (KINOMEscan®, Freemont, CA, USA) according to the standard and validated protocol defined by the contractor. […] Kinase binding assays This study was outsourced to DiscoverX (KINOMEscan®, Freemont, CA, USA) and is compliant with the corresponding project BUY004-01-p-00001. […] Results are reported as percent control (% Ctrl), where lower numbers indicate stronger hits in the matrix on the following page(s). %Ctrl calculation: ((test compound signal-positive control signal) / (negative control signal – positive control signal)) x 100.

[2] = target: CAMKK2 (Homo sapiens, UniProt Q96RR4)
Protocol: as §1

[3] = target: PKN2 (Homo sapiens, UniProt Q16513)
Protocol: as §1

[4] = target: T1, QSK (Homo sapiens, UniProt Q9Y2K2)
T1 construct: gene SIK3
Protocol: as §1

[5] = target: DAPK3 (Homo sapiens, UniProt O43293)
Protocol: as §1

[6] = target: PAK2 (Homo sapiens, UniProt Q13177)
Protocol: as §1

[7] = target: T2, RSK1(Kin.Dom.2-C-terminal) (Homo sapiens, UniProt Q15418)
T2 construct: gene RPS6KA1; Kin.Dom.2-C-terminal
Protocol: as §1

[8] = target: BMPR2 (Homo sapiens, UniProt Q13873)
Protocol: as §1

[9] = target: BMX (Homo sapiens, UniProt P51813)
Protocol: as §1

[10] = target: T3, JAK2(JH1domain-catalytic) (Homo sapiens, UniProt O60674)
T3 construct: JH1domain-catalytic
Protocol: as §1

[11] = target: MAP4K4 (Homo sapiens, UniProt O95819)
Protocol: as §1

[12] = target: T4, p38-alpha (Homo sapiens, UniProt Q16539)
T4 construct: gene MAPK14
Protocol: as §1

[13] = target: SRPK2 (Homo sapiens, UniProt P78362)
Protocol: as §1

[14] = target: TLK2 (Homo sapiens, UniProt Q86UE8)
Protocol: as §1

[15] = target: CAMK2A (Homo sapiens, UniProt Q9UQM7)
Protocol: as §1

[16] = target: TLK1 (Homo sapiens, UniProt Q9UKI8)
Protocol: as §1

[17] = target: T5, ABL1(E255K)-phosphorylated (Homo sapiens, UniProt P00519, E255K)
T5 construct: phosphorylated
Protocol: as §1

[18] = target: RIOK1 (Homo sapiens, UniProt Q9BRS2)
Protocol: as §1

[19] = target: PIP5K1A (Homo sapiens, UniProt Q99755)
Protocol: as §1

[20] = target: MAP3K4 (Homo sapiens, UniProt Q9Y6R4)
Protocol: as §1

[21] = target: CLK3 (Homo sapiens, UniProt P49761)
Protocol: as §1

[22] = target: ACVR1 (Homo sapiens, UniProt Q04771)
Protocol: as §1

[23] = target: ANKK1 (Homo sapiens, UniProt Q8NFD2)
Protocol: as §1

[24] = target: T6, MLK3 (Homo sapiens, UniProt Q16584)
T6 construct: gene MAP3K11
Protocol: as §1

[25] = target: PRKCD (Homo sapiens, UniProt Q05655)
Protocol: as §1

[26] = target: MERTK (Homo sapiens, UniProt Q12866)
Protocol: as §1

Chain of MAP3K4 (Q9Y6R4 whole entry): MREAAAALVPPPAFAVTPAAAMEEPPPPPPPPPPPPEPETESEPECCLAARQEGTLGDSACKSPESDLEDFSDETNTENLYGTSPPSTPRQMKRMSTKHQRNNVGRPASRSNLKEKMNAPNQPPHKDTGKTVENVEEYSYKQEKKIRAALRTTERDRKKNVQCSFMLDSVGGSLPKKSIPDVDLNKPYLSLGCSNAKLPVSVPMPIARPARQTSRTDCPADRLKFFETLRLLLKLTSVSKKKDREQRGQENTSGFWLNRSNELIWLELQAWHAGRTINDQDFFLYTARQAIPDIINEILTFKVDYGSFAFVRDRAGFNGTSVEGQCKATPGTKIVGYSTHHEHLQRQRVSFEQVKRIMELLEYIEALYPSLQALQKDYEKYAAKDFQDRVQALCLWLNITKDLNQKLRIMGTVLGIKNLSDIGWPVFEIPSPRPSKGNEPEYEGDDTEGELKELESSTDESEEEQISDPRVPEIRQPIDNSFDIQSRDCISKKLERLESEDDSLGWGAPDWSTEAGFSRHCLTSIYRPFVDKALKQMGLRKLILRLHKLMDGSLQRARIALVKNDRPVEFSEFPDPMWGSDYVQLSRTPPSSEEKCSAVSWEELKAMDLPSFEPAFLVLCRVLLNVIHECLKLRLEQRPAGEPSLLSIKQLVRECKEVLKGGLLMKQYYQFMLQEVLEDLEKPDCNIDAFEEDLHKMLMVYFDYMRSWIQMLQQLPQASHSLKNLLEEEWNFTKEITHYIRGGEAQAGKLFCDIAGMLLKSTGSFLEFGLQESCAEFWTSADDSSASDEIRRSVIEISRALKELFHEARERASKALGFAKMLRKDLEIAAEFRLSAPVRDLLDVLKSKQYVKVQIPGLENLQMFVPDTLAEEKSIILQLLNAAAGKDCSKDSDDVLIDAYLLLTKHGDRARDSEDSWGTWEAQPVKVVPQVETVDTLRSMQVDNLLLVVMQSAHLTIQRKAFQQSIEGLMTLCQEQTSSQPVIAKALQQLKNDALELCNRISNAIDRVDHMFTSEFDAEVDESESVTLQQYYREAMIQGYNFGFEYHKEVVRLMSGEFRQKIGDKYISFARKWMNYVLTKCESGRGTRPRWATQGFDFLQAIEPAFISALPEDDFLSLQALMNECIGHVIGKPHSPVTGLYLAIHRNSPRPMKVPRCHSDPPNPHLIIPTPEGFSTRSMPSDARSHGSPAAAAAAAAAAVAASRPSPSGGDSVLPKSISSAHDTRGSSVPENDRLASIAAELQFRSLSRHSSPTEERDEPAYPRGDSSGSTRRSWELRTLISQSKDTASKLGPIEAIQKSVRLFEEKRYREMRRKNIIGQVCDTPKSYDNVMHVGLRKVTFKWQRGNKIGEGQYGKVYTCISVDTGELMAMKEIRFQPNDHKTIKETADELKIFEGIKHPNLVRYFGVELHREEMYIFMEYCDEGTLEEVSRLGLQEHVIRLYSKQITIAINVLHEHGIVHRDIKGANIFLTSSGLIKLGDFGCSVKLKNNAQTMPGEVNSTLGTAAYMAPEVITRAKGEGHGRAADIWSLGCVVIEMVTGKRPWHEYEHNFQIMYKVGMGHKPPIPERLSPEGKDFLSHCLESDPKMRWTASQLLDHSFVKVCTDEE
T1 sequence (Q9Y2K2 whole entry): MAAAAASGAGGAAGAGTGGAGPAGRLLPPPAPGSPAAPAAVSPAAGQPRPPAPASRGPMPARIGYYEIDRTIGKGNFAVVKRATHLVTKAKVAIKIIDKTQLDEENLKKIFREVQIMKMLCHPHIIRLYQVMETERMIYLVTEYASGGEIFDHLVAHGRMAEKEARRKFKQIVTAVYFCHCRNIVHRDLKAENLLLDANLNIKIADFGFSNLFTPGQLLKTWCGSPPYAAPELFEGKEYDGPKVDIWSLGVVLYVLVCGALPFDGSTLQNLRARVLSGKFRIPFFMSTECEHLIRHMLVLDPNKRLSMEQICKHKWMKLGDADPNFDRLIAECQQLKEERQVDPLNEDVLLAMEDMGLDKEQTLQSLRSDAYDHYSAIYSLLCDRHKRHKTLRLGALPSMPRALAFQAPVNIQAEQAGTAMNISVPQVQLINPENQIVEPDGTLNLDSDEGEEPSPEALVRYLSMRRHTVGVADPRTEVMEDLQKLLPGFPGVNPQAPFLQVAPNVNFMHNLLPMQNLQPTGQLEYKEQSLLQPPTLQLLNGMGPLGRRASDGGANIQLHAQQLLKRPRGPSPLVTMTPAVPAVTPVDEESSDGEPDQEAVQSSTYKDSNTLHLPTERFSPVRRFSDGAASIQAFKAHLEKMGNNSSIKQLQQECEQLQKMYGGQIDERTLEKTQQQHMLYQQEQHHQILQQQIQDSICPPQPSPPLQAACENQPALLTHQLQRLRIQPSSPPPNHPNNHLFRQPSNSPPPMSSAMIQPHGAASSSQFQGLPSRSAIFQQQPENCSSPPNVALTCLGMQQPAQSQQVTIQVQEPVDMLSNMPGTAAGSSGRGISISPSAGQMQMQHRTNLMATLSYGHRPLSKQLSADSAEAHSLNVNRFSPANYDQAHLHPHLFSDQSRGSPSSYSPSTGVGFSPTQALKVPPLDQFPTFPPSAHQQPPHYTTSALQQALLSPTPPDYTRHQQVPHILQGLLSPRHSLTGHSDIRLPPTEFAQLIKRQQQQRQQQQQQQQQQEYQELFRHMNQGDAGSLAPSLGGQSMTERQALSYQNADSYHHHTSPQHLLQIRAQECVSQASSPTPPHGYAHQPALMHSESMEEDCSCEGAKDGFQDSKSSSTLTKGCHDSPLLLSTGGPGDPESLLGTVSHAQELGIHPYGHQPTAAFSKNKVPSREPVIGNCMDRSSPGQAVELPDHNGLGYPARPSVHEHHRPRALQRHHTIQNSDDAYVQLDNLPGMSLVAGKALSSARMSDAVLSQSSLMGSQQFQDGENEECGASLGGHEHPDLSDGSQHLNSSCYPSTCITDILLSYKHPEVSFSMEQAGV
Chain of BMPR2 (Q13873 whole entry): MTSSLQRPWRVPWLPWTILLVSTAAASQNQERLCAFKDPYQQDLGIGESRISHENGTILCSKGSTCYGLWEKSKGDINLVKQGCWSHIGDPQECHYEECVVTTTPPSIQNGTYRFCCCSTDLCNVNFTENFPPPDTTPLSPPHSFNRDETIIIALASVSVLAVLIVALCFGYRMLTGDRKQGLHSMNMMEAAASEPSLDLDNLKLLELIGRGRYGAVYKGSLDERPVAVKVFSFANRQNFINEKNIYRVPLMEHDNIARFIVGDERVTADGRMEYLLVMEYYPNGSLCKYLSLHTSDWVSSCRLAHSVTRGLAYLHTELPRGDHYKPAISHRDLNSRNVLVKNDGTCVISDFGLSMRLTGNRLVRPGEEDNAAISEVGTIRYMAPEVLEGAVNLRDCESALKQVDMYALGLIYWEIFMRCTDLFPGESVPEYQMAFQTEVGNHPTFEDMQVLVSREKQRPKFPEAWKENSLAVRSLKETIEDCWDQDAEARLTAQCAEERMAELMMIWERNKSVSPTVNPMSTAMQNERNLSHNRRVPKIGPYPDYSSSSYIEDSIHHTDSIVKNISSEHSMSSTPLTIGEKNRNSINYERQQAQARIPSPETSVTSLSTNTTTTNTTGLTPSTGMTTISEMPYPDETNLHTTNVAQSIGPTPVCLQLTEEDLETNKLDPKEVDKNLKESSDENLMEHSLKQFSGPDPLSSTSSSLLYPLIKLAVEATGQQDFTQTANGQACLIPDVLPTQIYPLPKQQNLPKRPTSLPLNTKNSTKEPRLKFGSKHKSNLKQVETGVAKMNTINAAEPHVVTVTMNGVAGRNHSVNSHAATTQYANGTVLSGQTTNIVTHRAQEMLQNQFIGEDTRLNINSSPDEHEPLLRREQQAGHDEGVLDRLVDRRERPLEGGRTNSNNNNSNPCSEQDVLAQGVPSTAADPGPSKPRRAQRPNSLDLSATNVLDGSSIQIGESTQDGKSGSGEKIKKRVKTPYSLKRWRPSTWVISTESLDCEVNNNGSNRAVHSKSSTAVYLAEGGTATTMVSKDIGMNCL
Chain of PKN2 (Q16513 whole entry): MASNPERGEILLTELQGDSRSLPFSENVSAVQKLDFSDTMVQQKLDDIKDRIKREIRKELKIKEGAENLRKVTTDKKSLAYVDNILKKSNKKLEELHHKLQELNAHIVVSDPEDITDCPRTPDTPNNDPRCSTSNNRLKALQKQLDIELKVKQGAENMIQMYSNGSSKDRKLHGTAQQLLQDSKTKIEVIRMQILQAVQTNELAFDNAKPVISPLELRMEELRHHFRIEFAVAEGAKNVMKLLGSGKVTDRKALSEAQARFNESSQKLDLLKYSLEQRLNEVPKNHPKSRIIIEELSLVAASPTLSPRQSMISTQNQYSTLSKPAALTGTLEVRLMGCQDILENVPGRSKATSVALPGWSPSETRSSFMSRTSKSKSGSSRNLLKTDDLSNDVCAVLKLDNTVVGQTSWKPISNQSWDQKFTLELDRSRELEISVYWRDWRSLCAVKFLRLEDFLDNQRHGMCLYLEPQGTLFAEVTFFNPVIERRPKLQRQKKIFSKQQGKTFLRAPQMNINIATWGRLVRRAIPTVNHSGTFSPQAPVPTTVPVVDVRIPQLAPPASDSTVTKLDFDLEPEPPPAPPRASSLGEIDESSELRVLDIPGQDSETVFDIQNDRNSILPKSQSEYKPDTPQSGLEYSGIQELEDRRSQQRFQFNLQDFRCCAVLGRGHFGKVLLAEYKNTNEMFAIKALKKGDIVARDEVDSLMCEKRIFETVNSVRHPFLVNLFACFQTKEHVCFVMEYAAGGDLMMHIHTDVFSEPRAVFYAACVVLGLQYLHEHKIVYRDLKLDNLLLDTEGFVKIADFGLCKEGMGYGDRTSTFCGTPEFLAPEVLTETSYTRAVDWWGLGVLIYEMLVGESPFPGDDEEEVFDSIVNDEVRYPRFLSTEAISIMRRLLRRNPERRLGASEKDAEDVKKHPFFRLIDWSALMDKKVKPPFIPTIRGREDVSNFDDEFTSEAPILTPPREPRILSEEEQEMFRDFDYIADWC

[O-][S@@+](Cc1cncs1)C(c1ccccc1)c1ccccc1 [S-CE-123, (S)-5-((Benzhydrylsulfinyl)Methyl)Thiazole]
remaining binding at 2.8 µM [1]: 69%
remaining binding at 2.8 µM [2]: 94%
remaining binding at 2.8 µM [3]: 86%
remaining binding at 2.8 µM [4]: 93%
remaining binding at 2.8 µM [5]: 96%
remaining binding at 2.8 µM [6]: 77%
remaining binding at 2.8 µM [7]: 92%
remaining binding at 2.8 µM [8]: 100%
remaining binding at 2.8 µM [9]: 57%
remaining binding at 2.8 µM [10]: 100%
remaining binding at 2.8 µM [11]: 100%
remaining binding at 2.8 µM [12]: 100%
remaining binding at 2.8 µM [13]: 76%
remaining binding at 2.8 µM [14]: 95%
remaining binding at 2.8 µM [15]: 93%
remaining binding at 2.8 µM [16]: 91%
remaining binding at 2.8 µM [17]: 73%
remaining binding at 2.8 µM [18]: 77%
remaining binding at 2.8 µM [19]: 95%
remaining binding at 2.8 µM [20]: 84%
remaining binding at 2.8 µM [21]: 95%
remaining binding at 2.8 µM [22]: 99%
remaining binding at 2.8 µM [23]: 100%
remaining binding at 2.8 µM [24]: 100%
remaining binding at 2.8 µM [25]: 89%
remaining binding at 2.8 µM [26]: 63%
